Test results taken from ChEMBL document CHEMBL4417631, “Oral peptide inhibitors of interleukin-23 receptor and their use to treat inflammatory bowel diseases” (2017).
Where a SMILES comes first, the peptide text is derived from it. Bridges are numbered along the chain shown (N, C = ends). Roman numbers before positions name the chains, in order. [ ]: non-standard residue; d: D form. hLeu = CC(C)CC[C@H](N)C(=O)O

Target: T1, Interleukin-23 receptor (Homo sapiens, UniProt Q5VWK5)
T1 sequence (Q5VWK5 whole entry): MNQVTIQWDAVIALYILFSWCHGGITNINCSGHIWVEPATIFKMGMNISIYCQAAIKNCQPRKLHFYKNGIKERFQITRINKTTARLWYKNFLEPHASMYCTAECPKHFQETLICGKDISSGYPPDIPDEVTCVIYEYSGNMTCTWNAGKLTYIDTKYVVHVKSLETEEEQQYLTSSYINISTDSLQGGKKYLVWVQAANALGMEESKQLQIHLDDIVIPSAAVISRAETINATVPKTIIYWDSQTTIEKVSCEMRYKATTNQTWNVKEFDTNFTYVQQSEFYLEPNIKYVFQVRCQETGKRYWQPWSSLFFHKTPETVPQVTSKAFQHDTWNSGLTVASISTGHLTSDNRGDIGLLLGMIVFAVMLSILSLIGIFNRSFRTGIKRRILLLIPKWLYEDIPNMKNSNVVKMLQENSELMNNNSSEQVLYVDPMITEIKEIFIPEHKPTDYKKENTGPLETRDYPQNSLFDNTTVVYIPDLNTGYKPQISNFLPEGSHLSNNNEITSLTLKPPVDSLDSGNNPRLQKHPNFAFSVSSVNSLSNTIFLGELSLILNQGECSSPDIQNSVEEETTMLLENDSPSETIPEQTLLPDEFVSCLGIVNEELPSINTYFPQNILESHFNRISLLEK
Experiment: Inhibition of interleukin-23 binding to human interleukin-23 receptor incubated for 2 hrs by competitive binding ELISA

| SMILES | IC50 |
| --- | --- |
| CC(C)[C@H](NC(=O)[C@H](Cc1c[nH]c2ccccc12)NC(=O)[C@H](CC(=O)O)NC(=O)[C@H](C)NC(=O)[C@@H](N)CS)C(=O)N[C@@H](CS)C(=O)N[C@@H](Cc1ccc(O)cc1)C(=O)N[C@@H](Cc1cccc2ccccc12)C(=O)N[C@@H](Cc1cnc[nH]1)C(=O)N[C@H](C(=O)N[C@H](Cc1ccccc1)C(=O)O)[C@@H](C)O | > 1 µM |
| CC(C)[C@H](NC(=O)[C@H](Cc1c[nH]c2ccccc12)N(C)C(=O)[C@H](CC(=O)O)NC(=O)[C@H](C)NC(=O)[C@@H](N)CS)C(=O)N[C@@H](CS)C(=O)N[C@@H](Cc1ccc(O)cc1)C(=O)N[C@@H](Cc1cccc2ccccc12)C(=O)N[C@@H](Cc1cnc[nH]1)C(=O)N[C@H](C(=O)N[C@@H](Cc1ccccc1)C(=O)O)[C@@H](C)O | > 1 µM |
| CC(=O)N[C@@H](CS)C(=O)N[C@@H](CCC(N)=O)C(=O)N[C@H](C(=O)NCC(=O)N[C@@H](CCC(N)=O)C(=O)N[C@@H](CS)C(=O)N[C@@H](Cc1ccc(O)cc1)C(=O)N[C@@H](Cc1c[nH]c2ccccc12)C(=O)N[C@@H](CCC(C)C)C(=O)N[C@@H](CCC(=O)O)C(=O)N[C@@H](CC(N)=O)C(=O)NCC(N)=O)[C@@H](C)O (Ac-CQTGQCYW[hLeu]ENG-NH2) | > 10 µM |
| CC(=O)N[C@@H](CS)C(=O)N[C@@H](CCCNC(=N)N)C(=O)N[C@@H](CC(=O)O)C(=O)N[C@@H](Cc1c[nH]c2ccccc12)C(=O)N[C@H](C(=O)N[C@@H](CS)C(=O)N[C@@H](Cc1ccc(O)cc1)C(=O)N[C@@H](Cc1c[nH]c2ccccc12)C(=O)N[C@@H](Cc1cnc[nH]1)C(=O)N[C@H](C(=O)N[C@@H](Cc1ccccc1)C(=O)NCC(N)=O)[C@@H](C)O)C(C)C | 0.5 to 1 µM |
| CC(C)[C@H](NC(=O)[C@H](Cc1c[nH]c2ccccc12)NC(=O)[C@H](CC(=O)O)NC(=O)[C@H](C)NC(=O)[C@@H](N)CS)C(=O)N[C@@H](CS)C(=O)N[C@@H](Cc1ccc(O)cc1)C(=O)N[C@@H](Cc1cccc2ccccc12)C(=O)N[C@@H](Cc1cnc[nH]1)C(=O)N[C@H](C(=O)N(C)[C@@H](Cc1ccccc1)C(N)=O)[C@@H](C)O | > 1 µM |
| CC(=O)NCC(=O)NCC(=O)NCC(=O)N[C@@H](CCC(=O)O)C(=O)N[C@@H](CS)C(=O)N[C@@H](CCC(=O)O)C(=O)N[C@@H](CC(N)=O)C(=O)N[C@@H](Cc1c[nH]c2ccccc12)C(=O)N[C@@H](CCC(=O)O)C(=O)N[C@@H](CS)C(=O)N[C@@H](Cc1ccc(O)cc1)C(=O)N[C@@H](Cc1c[nH]c2ccccc12)C(=O)N[C@@H](Cc1cnc[nH]1)C(=O)N[C@H](C(=O)N[C@@H](Cc1ccccc1)C(=O)NCC(N)=O)[C@@H](C)O (Ac-GGGECENWECYWHTFG-NH2) | 0.5 to 1 µM |
| CC(=O)N[C@@H](CS)C(=O)N[C@@H](C)C(=O)N[C@@H](CC(=O)O)C(=O)N[C@@H](Cc1c[nH]c2ccccc12)C(=O)N[C@H](C(=O)N[C@@H](CS)C(=O)N[C@@H](Cc1ccc(O)cc1)C(=O)N[C@@H](Cc1c[nH]c2ccccc12)C(=O)N[C@@H](Cc1cnc[nH]1)C(=O)N[C@H](C(=O)N[C@@H](Cc1ccccc1)C(=O)NCC(=O)N[C@@H](C)C(=O)N1CCC[C@H]1C(=O)N[C@H](CCCCN)C(=O)O)[C@@H](C)O)C(C)C | 0.1 to 1 µM |
| CC(=O)N[C@@H](CS)C(=O)N[C@@H](C)C(=O)N[C@@H](CC(=O)O)C(=O)N[C@@H](Cc1c[nH]c2ccccc12)C(=O)N[C@H](C(=O)N[C@@H](CS)C(=O)N[C@@H](Cc1ccc(O)cc1)C(=O)N[C@@H](Cc1c[nH]c2ccccc12)C(=O)N[C@@H](Cc1cnc[nH]1)C(=O)N[C@@H](CCCCN)C(=O)N[C@@H](Cc1ccccc1)C(=O)NCC(=O)O)C(C)C | > 1 µM |
| CC(=O)N[C@@H](CS)C(=O)N[C@@H](C)C(=O)N[C@H](C(=O)N[C@@H](Cc1c[nH]c2ccccc12)C(=O)N[C@@H](CCC(N)=O)C(=O)N[C@@H](CS)C(=O)N[C@@H](Cc1ccc(O)cc1)C(=O)N[C@@H](Cc1c[nH]c2ccccc12)C(=O)N[C@@H](Cc1cnc[nH]1)C(=O)N[C@@H](CCC(=O)O)C(=O)N[C@@H](Cc1ccc(O)cc1)C(=O)NCC(N)=O)[C@@H](C)O (Ac-CATWQCYWHEYG-NH2) | < 0.5 µM |
| CC(=O)N[C@@H](CS)C(=O)N[C@@H](CCC(N)=O)C(=O)N[C@H](C(=O)N[C@@H](Cc1c[nH]c2ccccc12)C(=O)N[C@@H](CCC(N)=O)C(=O)N[C@@H](CS)C(=O)N[C@@H](Cc1ccc(O)cc1)C(=O)N[C@@H](Cc1c[nH]c2ccccc12)C(=O)N[C@@H](CC1CCCC1)C(=O)N[C@@H](CCC(=O)O)C(=O)N[C@@H](CC(N)=O)C(=O)NCC(=O)NCCOCC(=O)N[C@H](CCCCN)C(N)=O)[C@@H](C)O | < 0.5 µM |
| C[C@@H](O)[C@H](NC(=O)[C@@H]1CCCN1C(=O)[C@@H](N)Cc1ccccc1)C(=O)N[C@@H](Cc1c[nH]c2ccccc12)C(=O)N[C@@H](CCC(=O)O)C(=O)N[C@@H](Cc1c[nH]c2ccccc12)C(=O)N[C@@H](Cc1ccc(O)cc1)C(=O)N[C@@H](Cc1c[nH]c2ccccc12)C(=O)N[C@@H](CSSC[C@H](NC(=O)[C@H](Cc1c[nH]c2ccccc12)NC(=O)[C@H](Cc1ccc(O)cc1)NC(=O)[C@H](Cc1c[nH]c2ccccc12)NC(=O)[C@H](CCC(=O)O)NC(=O)[C@H](Cc1c[nH]c2ccccc12)NC(=O)[C@@H](NC(=O)[C@@H]1CCCN1C(=O)[C@@H](N)Cc1ccccc1)[C@@H](C)O)C(=O)N[C@@H](CC(N)=O)C(=O)N[C@@H](CCCNC(=N)N)C(=O)N[C@@H](CC(=O)O)C(N)=O)C(=O)N[C@@H](CC(N)=O)C(=O)N[C@@H](CCCNC(=N)N)C(=O)N[C@@H](CC(=O)O)C(N)=O (I: H-FPTWEWYWCNRD-NH2 / II: H-FPTWEWYWCNRD-NH2; disulfide I:9-II:9) | 1 to 10 µM |
| CC(=O)N[C@@H](CS)C(=O)N[C@@H](CCC(N)=O)C(=O)N[C@H](C(=O)N[C@@H](Cc1c[nH]c2ccccc12)C(=O)N[C@@H](CCC(N)=O)C(=O)N[C@@H](CS)C(=O)N[C@@H](Cc1ccc(O)cc1)C(=O)N[C@@H](Cc1c[nH]c2ccccc12)C(=O)N[C@@H](CCCNC(=N)N)C(=O)N[C@@H](CCCCN)C(=O)N[C@@H](CC(N)=O)C(=O)NCC(=O)NCCOCC(=O)N[C@H](CCCCN)C(N)=O)[C@@H](C)O | < 0.5 µM |
| CC(=O)N[C@@H](CS)C(=O)N[C@@H](C)C(=O)N[C@@H](CC(=O)O)C(=O)N[C@@H](Cc1c[nH]c2ccccc12)C(=O)N[C@H](C(=O)N[C@@H](CS)C(=O)N[C@@H](Cc1ccc(O)cc1)C(=O)N[C@H](C(=O)N[C@@H](CCCN)C(=O)N[C@@H](CN)C(=O)N[C@@H](Cc1ccccc1)C(=O)NCC(=O)NCCOCC(=O)N[C@H](CCCCN)C(N)=O)C1CCC(c2ccccc2)CC1)C(C)C (some centres undefined) | > 3 µM |
| CC(C)[C@H](NC(=O)[C@H](Cc1c[nH]c2ccccc12)NC(=O)[C@H](CC(=O)O)NC(=O)[C@H](C)NC(=O)[C@@H](N)CS)C(=O)N[C@@H](CS)C(=O)N[C@@H](Cc1ccc(O)cc1)C(=O)N[C@@H](Cc1cccc2ccccc12)C(=O)N[C@@H](Cc1cnc[nH]1)C(=O)N[C@H](C(=O)N[C@@H](Cc1ccccc1)C(=O)N(C)CC(=O)O)[C@@H](C)O | > 1 µM |
| CC(=O)N[C@@H](CS)C(=O)N[C@@H](CCC(N)=O)C(=O)N[C@H](C(=O)N[C@@H](Cc1c[nH]c2ccccc12)C(=O)N[C@@H](CCC(N)=O)C(=O)N[C@@H](CS)C(=O)N[C@@H](CC1CCCCC1)C(=O)N[C@@H](Cc1c[nH]c2ccccc12)C(=O)N[C@@H](CCC(C)C)C(=O)N[C@@H](CCC(=O)O)C(=O)N[C@@H](CC(N)=O)C(=O)NCC(N)=O)[C@@H](C)O | 6 µM |
| CC(=O)N[C@H](C(=O)N[C@@H](C)C(=O)N[C@@H](CC(=O)O)C(=O)N[C@@H](Cc1c[nH]c2ccccc12)C(=O)N[C@H](C(=O)N[C@@H](CS)C(=O)N[C@@H](Cc1ccc(O)cc1)C(=O)N[C@@H](Cc1c[nH]c2ccccc12)C(=O)N[C@@H](Cc1cnc[nH]1)C(=O)N[C@H](C(=O)N[C@@H](Cc1ccccc1)C(=O)NCC(N)=O)[C@@H](C)O)C(C)C)C(C)(C)S | 1 to 10 µM |
| CC(=O)N[C@@H](CS)C(=O)N[C@H](C(=O)N[C@H](C(=O)N[C@@H](Cc1c[nH]c2ccccc12)C(=O)N[C@@H](CCC(=O)O)C(=O)N[C@@H](CS)C(=O)N[C@@H](Cc1ccc(O)cc1)C(=O)N[C@@H](Cc1c[nH]c2ccccc12)C(=O)N[C@@H](Cc1cnc[nH]1)C(=O)N[C@@H](CCC(N)=O)C(=O)N[C@@H](Cc1ccccc1)C(=O)NCC(N)=O)[C@@H](C)O)[C@@H](C)O (Ac-CTTWECYWHQFG-NH2) | < 0.5 µM |
| CC(=O)N[C@@H](CS)C(=O)N[C@@H](C)C(=O)N[C@@H](CC(=O)O)C(=O)N[C@@H](Cc1c[nH]c2ccccc12)C(=O)N[C@H](C(=O)N[C@@H](CS)C(=O)N[C@@H](Cc1ccc(O)cc1)C(=O)N[C@@H](Cc1c[nH]c2ccccc12)C(=O)N[C@@H](Cc1cnc[nH]1)C(=O)N[C@H](C(=O)N[C@@H](CCCCNC(=O)COCC(=O)NCCCC[C@H](NC(=O)[C@@H](NC(=O)[C@H](Cc1cnc[nH]1)NC(=O)[C@H](Cc1c[nH]c2ccccc12)NC(=O)[C@H](Cc1ccc(O)cc1)NC(=O)[C@H](CS)NC(=O)[C@@H](NC(=O)[C@H](Cc1c[nH]c2ccccc12)NC(=O)[C@H](CC(=O)O)NC(=O)[C@H](C)NC(=O)[C@H](CS)NC(C)=O)C(C)C)[C@@H](C)O)C(=O)NCC(=O)O)C(=O)NCC(=O)O)[C@@H](C)O)C(C)C | 1 to 10 µM |
| CC(=O)N[C@@H](CS)C(=O)N[C@@H](CCC(N)=O)C(=O)N[C@H](C(=O)N[C@@H](Cc1c[nH]c2ccccc12)C(=O)N[C@@H](CCC(N)=O)C(=O)N[C@@H](CS)C(=O)N[C@@H](Cc1ccc(O)cc1)C(=O)N[C@@H](CCc1ccccc1)CC(=O)N[C@@H](CCCNC(=N)N)C(=O)N[C@H](C(=O)N[C@@H](CC(N)=O)C(=O)NCC(=O)NCCOCC(=O)N[C@H](CCCCN)C(N)=O)C(C)C)[C@@H](C)O | > 30 µM |
